Test results from US20110318768A1, “METHOD FOR DETERMINING SENSITIVITY OF TUMOR CELLS TO TYROSINE KINASE INHIBITOR AND COMPUTER PROGRAM PRODUCT” (SYSMEX CORPORATION, priority 2010, published 2011).

Tests used:
Assay in all cases: Tyrosine kinase activity inhibition rate in cell membrane fraction (Poly-Glu4-Tyr substrate)
Format in all cases: biochemical
[1] = tested on: tyrosine kinase in cell membrane fraction of AU565; settings: for Inhibition rate: 25 μM kinase inhibitor, 25 μM ATP
Experimental: (§1) Breast cancer cell lines shown in Table 3 were cultured in a 150 mm dish so as to be about 80% confluent, the cells were recovered using PBS and a scraper, and a cell pellet was obtained by centrifugal operation (900×g, for 5 minutes, at 4° C.). The pellet was frozen with liquid nitrogen and stored at −80° C. until preparation of the measurement sample.
(§2) 500 μl of NP40 (−) solubilized buffer (20 mM HEPES (pH 7.4)), (w/v) % glycerol, 0.2% protease inhibitor cocktail (#P8340: Sigma-Aldrich (product composition: 104 mM AEBSF, 80 μM aprotinin, 4 mM bestatin, 1.4 mM E-64, 2 mM leupeptin, 1.5 mM Pepstatin A), 50 mM NaF and 200 μM Na3VO4) was added to the cell pellet, followed by stirring for 2 seconds three times using a vortex mixer. After being allowed to stand for 10 minutes, the soluble fraction was removed by centrifugal operation (at 20000×g, for 30 minutes, at 4° C.). The obtained pellet was resuspended in 500 μl of NP40 (−) solubilized buffer, the soluble fraction was again removed by centrifugal operation (at 20000×g, for 20 minutes, at 4° C.), and the pellet was washed. The pellet was resuspended by adding 500 μl of NP40 (+) solubilized buffer (a buffer prepared by adding NP-40 to the NP40 (−) solubilized buffer at a final concentration of 1%) to the pellet, pipetting fifty times, and vortexing for 2 seconds three times. After being allowed to stand for 10 minutes, a cell membrane fraction containing a membrane protein was obtained by centrifugal operation (at 20000×g, for 40 minutes, at 4° C.). The protein concentration of the fraction was measured by DC protein assay (#500-0116 JA: Bio-Rad) and the fraction was used as a sample for kinase activity measurement. The sample was frozen with liquid nitrogen and stored at −80° C. until used for the following kinase activity measurement.
(§3) NeutrAvidin Coated Plates (HBC) (96 white plate; #15509: Pierce) were washed three times with 300 μl of TBS-T (20 mM Tris-HCl (pH 7.4)), 150 mM NaCl, 0.1% Tween), and then 100 μl of Poly-Glu4-Tyr biotin conjugate (#12440: Upstate) which had been diluted to 1 μg/ml with TBS (20 mM Tris-HCl (pH 7.4), 150 mM NaCl) was added to the wells. After shaking at 37° C. and 400 rpm for 90 minutes, the wells were washed with 300 μl of TBS-T three times and a measuring plate was obtained.
(§4) The measurement sample was diluted with a kinase buffer (20 mM HEPES (pH 7.4), 25 mM MgCl2, 1.25 mM MnCl2, 250 μM Na3VO4, 12.5 (w/v) % glycerol) so as to adjust the protein concentration to 6.25 μg/ml. The diluted measurement sample was transferred to wells of a 96 well V bottom plate. A DMSO solution (inhibitor concentration: 5 mM) containing one type of tyrosine kinase inhibitors (Inhibitors 1 to 10 shown in Table 6) was added to the wells at a ratio of 1:160 based on the diluted measurement sample solution, followed by mixing thereof. As the control, DMSO was added to the diluted measurement sample at the same ratio as the solution of the inhibitor. The used tyrosine kinase inhibitors are represented as Inhibitors 1 to 10 in Table 6.
(§5) After addition of the inhibitors, a mixed solution of the measurement sample and the inhibitor was allowed to stand at room temperature for 10 minutes. 40 μl of the mixed solution was transferred to wells of the measuring plate and 10 μl of an ATP solution (20 mM HEPES (pH 7.4), […]) as the phosphate group donor was added to the wells.
(§6) The composition of the solution in the wells is as follows: protein concentration: 5 μg/ml, 20 mM HEPES (pH 7.4), 20 mM MgCl2, 1 mM MnCl2, 200 μM Na3VO4, 10 (w/v) % glycerol, 25 μM ATP, 25 μM kinase inhibitor.
(§7) After shaking the measuring plate at 37° C. and 400 rpm for 60 minutes, the solution was removed from the measuring plate, and the wells were washed with 300 μl of TBS-T three times. 100 μl of Starting Block T20 (TBS) (#37543: Pierce) as a blocking solution was added to the wells, followed by blocking at 37° C. and 400 rpm for 10 minutes. The blocking solution was removed from the measuring plate. […]

[2] = tested on: tyrosine kinase in cell membrane fraction of BT-20; settings: for Inhibition rate: 25 μM kinase inhibitor, 25 μM ATP
Experimental: as §1, §2, §3, §4, §5, §6, §7

[3] = tested on: tyrosine kinase in cell membrane fraction of BT-474; settings: for Inhibition rate: 25 μM kinase inhibitor, 25 μM ATP
Experimental: as §1, §2, §3, §4, §5, §6, §7

[4] = tested on: tyrosine kinase in cell membrane fraction of BT-483; settings: for Inhibition rate: 25 μM kinase inhibitor, 25 μM ATP
Experimental: as §1, §2, §3, §4, §5, §6, §7

[5] = tested on: tyrosine kinase in cell membrane fraction of BT-549; settings: for Inhibition rate: 25 μM kinase inhibitor, 25 μM ATP
Experimental: as §1, §2, §3, §4, §5, §6, §7

[6] = tested on: tyrosine kinase in cell membrane fraction of HCC1806; settings: for Inhibition rate: 25 μM kinase inhibitor, 25 μM ATP
Experimental: as §1, §2, §3, §4, §5, §6, §7

[7] = tested on: tyrosine kinase in cell membrane fraction of HCC1937; settings: for Inhibition rate: 25 μM kinase inhibitor, 25 μM ATP
Experimental: as §1, §2, §3, §4, §5, §6, §7

[8] = tested on: tyrosine kinase in cell membrane fraction of HCC202; settings: for Inhibition rate: 25 μM kinase inhibitor, 25 μM ATP
Experimental: as §1, §2, §3, §4, §5, §6, §7

[9] = tested on: tyrosine kinase in cell membrane fraction of MCF7; settings: for Inhibition rate: 25 μM kinase inhibitor, 25 μM ATP
Experimental: as §1, §2, §3, §4, §5, §6, §7

[10] = tested on: tyrosine kinase in cell membrane fraction of MDA-MB-157; settings: for Inhibition rate: 25 μM kinase inhibitor, 25 μM ATP
Experimental: as §1, §2, §3, §4, §5, §6, §7

[11] = tested on: tyrosine kinase in cell membrane fraction of MDA-MB-231; settings: for Inhibition rate: 25 μM kinase inhibitor, 25 μM ATP
Experimental: as §1, §2, §3, §4, §5, §6, §7

[12] = tested on: tyrosine kinase in cell membrane fraction of MDA-MB-415; settings: for Inhibition rate: 25 μM kinase inhibitor, 25 μM ATP
Experimental: as §1, §2, §3, §4, §5, §6, §7

[13] = tested on: tyrosine kinase in cell membrane fraction of MDA-MB-436; settings: for Inhibition rate: 25 μM kinase inhibitor, 25 μM ATP
Experimental: as §1, §2, §3, §4, §5, §6, §7

[14] = tested on: tyrosine kinase in cell membrane fraction of SK-BR-3; settings: for Inhibition rate: 25 μM kinase inhibitor, 25 μM ATP
Experimental: as §1, §2, §3, §4, §5, §6, §7

[15] = tested on: tyrosine kinase in cell membrane fraction of T47D; settings: 25 μM kinase inhibitor, 25 μM ATP
Experimental: as §1, §2, §3, §4, §5, §6, §7

[16] = tested on: tyrosine kinase in cell membrane fraction of ZR-75-1; settings: for Inhibition rate: 25 μM kinase inhibitor, 25 μM ATP
Experimental: as §1, §2, §3, §4, §5, §6, §7

[17] = tested on: tyrosine kinase in cell membrane fraction of ZR-75-30; settings: for Inhibition rate: 25 μM kinase inhibitor, 25 μM ATP
Experimental: as §1, §2, §3, §4, §5, §6, §7

SMILES	Inhibition rate [1]	Inhibition rate [2]	Inhibition rate [3]	Inhibition rate [4]	Inhibition rate [5]	Inhibition rate [6]	Inhibition rate [7]	Inhibition rate [8]	Inhibition rate [9]	Inhibition rate [10]	Inhibition rate [11]	Inhibition rate [12]	Inhibition rate [13]	Inhibition rate [14]	Inhibition rate [15]	Inhibition rate [16]	Inhibition rate [17]	also measured
Cc1[nH]c(/C=C2\C(=O)Nc3ccc(S(=O)(=O)N(C)c4cccc(Cl)c4)cc32)c(C)c1C(=O)N1CCN(C)CC1 [Inhibitor 9]	55.6%	51.4%	54.6%	68.6%	81.4%	77.3%	52.6%	69.1%	64.3%	56.8%	68.0%	56.7%	74.0%	66.1%	42.5%	53.9%	65.1%	–
COc1cc2ncnc(Nc3ccc(Oc4ccccc4)cc3)c2cc1OC [Inhibitor 10, 4-(4′-phenoxyanilino)-6,7-dimethoxyquinazoline]	36.8%	56.6%	37.6%	78.5%	60.6%	67.1%	50.1%	26.3%	49.2%	60.3%	63.6%	68.6%	44.9%	43.3%	42.3%	55.8%	37.3%	Example 1 Inhibitory capacity of Src inhibitor [1]: low (the term “low” means a cell line whose inhibition rate of the Src inhibitor is lower than the threshold value (=43.4%)); Example 1 Inhibitory capacity of Src inhibitor [2]: high (the term “high” means a cell line whose inhibition rate of the Src inhibitor is more than the threshold value); Example 1 Inhibitory capacity of Src inhibitor [3]: low (the term “low” means a cell line whose inhibition rate of the Src inhibitor is lower than the threshold value (=43.4%)); Example 1 Inhibitory capacity of Src inhibitor [4]: high (the term “high” means a cell line whose inhibition rate of the Src inhibitor is more than the threshold value); Example 1 Inhibitory capacity of Src inhibitor [5]: high (the term “high” means a cell line whose inhibition rate of the Src inhibitor is more than the threshold value); Example 1 Inhibitory capacity of Src inhibitor [6]: high (the term “high” means a cell line whose inhibition rate of the Src inhibitor is more than the threshold value); Example 1 Inhibitory capacity of Src inhibitor [7]: high (the term “high” means a cell line whose inhibition rate of the Src inhibitor is more than the threshold value); Example 1 Inhibitory capacity of Src inhibitor [8]: low (the term “low” means a cell line whose inhibition rate of the Src inhibitor is lower than the threshold value (=43.4%)); Example 1 Inhibitory capacity of Src inhibitor [9]: high (the term “high” means a cell line whose inhibition rate of the Src inhibitor is more than the threshold value); Example 1 Inhibitory capacity of Src inhibitor [10]: high (the term “high” means a cell line whose inhibition rate of the Src inhibitor is more than the threshold value); Example 1 Inhibitory capacity of Src inhibitor [11]: high (the term “high” means a cell line whose inhibition rate of the Src inhibitor is more than the threshold value); Example 1 Inhibitory capacity of Src inhibitor [12]: high (the term “high” means a cell line whose inhibition rate of the Src inhibitor is more than the threshold value); Example 1 Inhibitory capacity of Src inhibitor [13]: high (the term “high” means a cell line whose inhibition rate of the Src inhibitor is more than the threshold value); Example 1 Inhibitory capacity of Src inhibitor [14]: low (the term “low” means a cell line whose inhibition rate of the Src inhibitor is lower than the threshold value (=43.4%)); Example 1 Inhibitory capacity of Src inhibitor [16]: high (the term “high” means a cell line whose inhibition rate of the Src inhibitor is more than the threshold value); Example 1 Inhibitory capacity of Src inhibitor [17]: low (the term “low” means a cell line whose inhibition rate of the Src inhibitor is lower than the threshold value (=43.4%))
